Source: ChEMBL document CHEMBL1629674, “Surveillance of carbapenem-resistant Pseudomonas aeruginosa isolates from Puerto Rican Medical Center Hospitals: dissemination of KPC and IMP-18 beta-lactamases” (2009)

Experiments:
Pseudomonas aeruginosa [1] = assay: Antimicrobial activity against Pseudomonas aeruginosa PS6A with PFGE phenotype 11A obtained from sputum of ICU patient by agar dilution method in presence of beta-lactamase inhibitor tazobactam; type: functional
Pseudomonas aeruginosa [2] = assay: Antimicrobial activity against OprD overproducing Pseudomonas aeruginosa PAO1 expressing mexA and oprD by agar dilution method in presence of beta-lactamase inhibitor Tazobactam; type: functional
Pseudomonas aeruginosa [3] = assay: Antimicrobial activity against Pseudomonas aeruginosa PS33 with PFGE phasotype 9A obtained from blood of patient by agar dilution method in presence of beta-lactamase inhibitor Tazobactam; type: functional
Pseudomonas aeruginosa [4] = assay: Antimicrobial activity against Pseudomonas aeruginosa PS11A with PFGE phasotype 7A obtained from sputum of ICU patient by agar dilution method in presence of beta-lactamase inhibitor Tazobactam; type: functional
Pseudomonas aeruginosa [5] = assay: Antimicrobial activity against Pseudomonas aeruginosa PS29 with PFGE phenotype 11D obtained from sputum of patient by agar dilution method in presence of beta-lactamase inhibitor tazobactam; type: functional
Pseudomonas aeruginosa [6] = assay: Antimicrobial activity against Pseudomonas aeruginosa PS7A with PFGE phenotype 11D obtained from urine of ICU patient by agar dilution method in presence of beta-lactamase inhibitor tazobactam; type: functional
Pseudomonas aeruginosa [7] = assay: Antimicrobial activity against Pseudomonas aeruginosa PS13 with PFGE phenotype 11E obtained from sputum of ICU patient by agar dilution method in presence of beta-lactamase inhibitor tazobactam; type: functional
Pseudomonas aeruginosa [8] = assay: Antimicrobial activity against Pseudomonas aeruginosa PS26 with PFGE phenotype 3A expressing beta-lactamase OXA-2 obtained from sputum of ICU patient by agar dilution method in presence of beta-lactamase inhibitor tazobactam; type: functional
Pseudomonas aeruginosa [9] = assay: Antimicrobial activity against Pseudomonas aeruginosa PS3 with PFGE phenotype 12 obtained from sputum of ICU patient by agar dilution method in presence of beta-lactamase inhibitor tazobactam; type: functional
Pseudomonas aeruginosa [10] = assay: Antimicrobial activity against Pseudomonas aeruginosa PS43 with PFGE phasotype 2 expressing beta-lactamase KPC-2, OXA-2 obtained from skin of ICU patient by agar dilution method in presence of beta-lactamase inhibitor Tazobactam; type: functional
Pseudomonas aeruginosa [11] = assay: Antimicrobial activity against Pseudomonas aeruginosa PS30 with PFGE phenotype 11D obtained from sputum of patient by agar dilution method in presence of beta-lactamase inhibitor tazobactam; type: functional
Pseudomonas aeruginosa [12] = assay: Antimicrobial activity against Pseudomonas aeruginosa PS1 with PFGE phenotype 9C negative for blaIMP, blaVIM and blaKPC obtained from sputum of patient by agar dilution method in presence of beta-lactamase inhibitor tazobactam
Pseudomonas aeruginosa [13] = assay: Antimicrobial activity against Pseudomonas aeruginosa PS35 with PFGE phenotype 11A obtained from urine of patient by agar dilution method in presence of beta-lactamase inhibitor tazobactam; type: functional
Pseudomonas aeruginosa [14] = assay: Antimicrobial activity against Pseudomonas aeruginosa PS34 with PFGE phenotype 4A obtained from blood of ICU patient by agar dilution method in presence of beta-lactamase inhibitor tazobactam; type: functional
Pseudomonas aeruginosa [15] = assay: Antimicrobial activity against Pseudomonas aeruginosa PS40 with PFGE phenotype 5 expressing beta-lactamase KPC-2, OXA-2 obtained from urine of patient by agar dilution method in presence of beta-lactamase inhibitor tazobactam; type: functional
Pseudomonas aeruginosa [16] = assay: Antimicrobial activity against Pseudomonas aeruginosa PS21 with PFGE phenotype 11F obtained from skin of patient by agar dilution method in presence of beta-lactamase inhibitor tazobactam; type: functional
Pseudomonas aeruginosa [17] = assay: Antimicrobial activity against Pseudomonas aeruginosa PS15A with PFGE phasotype 10A obtained from blood of patient by agar dilution method in presence of beta-lactamase inhibitor Tazobactam; type: functional
Pseudomonas aeruginosa [18] = assay: Antimicrobial activity against Pseudomonas aeruginosa PS17B with PFGE phenotype 11D expressing beta-lactamase KPC-2 obtained from blood of ICU patient by agar dilution method in presence of beta-lactamase inhibitor tazobactam; type: functional
Pseudomonas aeruginosa [19] = assay: Antimicrobial activity against Pseudomonas aeruginosa PS10 with PFGE phenotype 1A expressing beta-lactamase KPC-2 obtained from blood of patient by agar dilution method in presence of beta-lactamase inhibitor tazobactam; type: functional
Pseudomonas aeruginosa [20] = assay: Antimicrobial activity against Pseudomonas aeruginosa PS44 with PFGE phenotype 13 expressing beta-lactamase IMP-18 obtained from blood of patient by agar dilution method in presence of beta-lactamase inhibitor tazobactam; type: functional
Pseudomonas aeruginosa [21] = assay: Antimicrobial activity against Pseudomonas aeruginosa PS14 with PFGE phenotype 10C obtained from sputum of ICU patient by agar dilution method in presence of beta-lactamase inhibitor tazobactam; type: functional
Pseudomonas aeruginosa [22] = assay: Antimicrobial activity against Pseudomonas aeruginosa PS18A with PFGE phenotype 11D obtained from CSF of ICU patient by agar dilution method in presence of beta-lactamase inhibitor tazobactam; type: functional
Pseudomonas aeruginosa [23] = assay: Antimicrobial activity against Pseudomonas aeruginosa PS39 with PFGE phenotype 8 expressing beta-lactamase IMP-18 obtained from urine of patient by agar dilution method in presence of beta-lactamase inhibitor tazobactam; type: functional
Pseudomonas aeruginosa [24] = assay: Antimicrobial activity against Pseudomonas aeruginosa PS20A with PFGE phenotype 11D obtained from skin of patient by agar dilution method in presence of beta-lactamase inhibitor tazobactam; type: functional
Pseudomonas aeruginosa [25] = assay: Antimicrobial activity against Pseudomonas aeruginosa PS37 with PFGE phasotype 11D obtained from sputum of patient by agar dilution method in presence of beta-lactamase inhibitor Tazobactam; type: functional
Pseudomonas aeruginosa [26] = assay: Antimicrobial activity against Pseudomonas aeruginosa PS9 with PFGE phenotype 3B obtained from sputum of patient by agar dilution method in presence of beta-lactamase inhibitor tazobactam; type: functional
Pseudomonas aeruginosa [27] = assay: Antimicrobial activity against Pseudomonas aeruginosa PS31 with PFGE phenotype 11B obtained from skin of patient by agar dilution method in presence of beta-lactamase inhibitor tazobactam; type: functional
Pseudomonas aeruginosa [28] = assay: Antimicrobial activity against Pseudomonas aeruginosa PS19A with PFGE phenotype 11C obtained from urine of patient by agar dilution method in presence of beta-lactamase inhibitor tazobactam; type: functional
Pseudomonas aeruginosa [29] = assay: Antimicrobial activity against Pseudomonas aeruginosa PS28 with PFGE phenotype 6 expressing beta-lactamase KPC-5 obtained from skin of patient by agar dilution method in presence of beta-lactamase inhibitor tazobactam; type: functional
Pseudomonas aeruginosa [30] = assay: Antimicrobial activity against Pseudomonas aeruginosa PS23 with PFGE phasotype 4A expressing beta-lactamase KPC-2 obtained from blood of patient by agar dilution method in presence of beta-lactamase inhibitor Tazobactam; type: functional
Pseudomonas aeruginosa [31] = assay: Antimicrobial activity against Pseudomonas aeruginosa PS36 with PFGE phenotype 11B obtained from urine of patient by agar dilution method in presence of beta-lactamase inhibitor tazobactam; type: functional
Pseudomonas aeruginosa [32] = assay: Antimicrobial activity against Pseudomonas aeruginosa PS12 with PFGE phasotype 7B obtained from sputum of patient by agar dilution method in presence of beta-lactamase inhibitor Tazobactam; type: functional
Pseudomonas aeruginosa [33] = assay: Antimicrobial activity against Pseudomonas aeruginosa PS41 with PFGE phenotype 11D obtained from urine of patient by agar dilution method in presence of beta-lactamase inhibitor tazobactam; type: functional
Pseudomonas aeruginosa [34] = assay: Antimicrobial activity against Pseudomonas aeruginosa PS22 with PFGE phenotype 3A obtained from urine of patient by agar dilution method in presence of beta-lactamase inhibitor tazobactam; type: functional
Pseudomonas aeruginosa [35] = assay: Antimicrobial activity against Pseudomonas aeruginosa PS4 with PFGE phasotype 9B expressing beta-lactamase IMP-18 obtained from sputum of patient by agar dilution method in presence of beta-lactamase inhibitor Tazobactam; type: functional
Pseudomonas aeruginosa [36] = assay: Antimicrobial activity against Pseudomonas aeruginosa PS5 with PFGE phenotype 7A expressing beta-lactamase KPC-2 obtained from sputum of ICU patient by agar dilution method in presence of beta-lactamase inhibitor tazobactam; type: functional
Pseudomonas aeruginosa [37] = assay: Antimicrobial activity against Pseudomonas aeruginosa PS25 with PFGE phenotype 1A obtained from sputum of patient by agar dilution method in presence of beta-lactamase inhibitor tazobactam; type: functional
Pseudomonas aeruginosa [38] = assay: Antimicrobial activity against Pseudomonas aeruginosa PS2 with PFGE phenotype 10B obtained from urine of ICU patient by agar dilution method in presence of beta-lactamase inhibitor tazobactam; type: functional

Measured: MIC

CCN1CCN(C(=O)N[C@@H](C(=O)N[C@@H]2C(=O)N3[C@@H]2SC(C)(C)[C@@H]3C(=O)O)c2ccccc2)C(=O)C1=O [PIPERACILLIN]
8 µg/mL: Pseudomonas aeruginosa [9] | Pseudomonas aeruginosa [12] | Pseudomonas aeruginosa [17]
32 µg/mL: Pseudomonas aeruginosa [3] | Pseudomonas aeruginosa [20]
256 µg/mL: Pseudomonas aeruginosa [10] | Pseudomonas aeruginosa [34]
64 µg/mL: Pseudomonas aeruginosa [26] | Pseudomonas aeruginosa [35]
4 µg/mL: Pseudomonas aeruginosa [2] | Pseudomonas aeruginosa [21] | Pseudomonas aeruginosa [38]
128 µg/mL: Pseudomonas aeruginosa [8] | Pseudomonas aeruginosa [15] | Pseudomonas aeruginosa [23] | Pseudomonas aeruginosa [29]
> 256 µg/mL: all other assays above
